Measured values taken from patent US20250281506A1, “APPLICATION OF HYDROXYPROGESTERONE CAPROATE IN ENHANCING TUMOR TREATMENT EFFECT” (SHENZHEN EVERGREEN THERAPEUTICS CO., LTD., priority 2021, published 2025).
Entries after “also recorded” stand apart in the source; their conditions may differ.

Assays:
CT26 tumor [1] = experiment: BALB/c mouse CT26 tumor model, tumor volume / tumor inhibition rate; type: in vivo, BALB/c mice; parameters: Tumor Inhibition Rate (Compared with Control Group): concentration or dose not given beside the values; details: for Tumor Inhibition Rate (Compared with Control Group): CT26 model
Protocol: Female BALB/c mice aged 6-8 weeks with a body weight of approximately 20 grams were used. CT26 cells (5.0×106) dissolved in 100 μL of PBS were subcutaneously injected into BALB/c mice. When the tumor volume reached approximately 100 mm^3, the experimental animals were randomly divided into control and various treatment groups for the experiment.
Lenvatinib was administered orally once daily at a dosage of 10 mg/kg. Hydroxyprogesterone caproate was administered via intraperitoneal injection (abbreviated as i.p. in the table below) every two days. Anti-PD-1 antibody (RMP1-14), diluted in PBS, was administered every three days at a dosage of 200 μg per mouse.
Tumor size was measured using calipers twice a week for two-dimensional assessment. Tumor volume was calculated using the formula V=(X2Y)/2, where X and Y represent the shorter and longer diameters of the tumor, respectively, expressed in mm^3.

MC38/hPD-L1 tumor = experiment: Humanized PD-1 mouse MC38/hPD-L1 tumor model; type: in vivo, humanized PD-1 mice
Protocol: Humanized PD-1 mice, female, aged 6-8 weeks, weighing approximately 20 grams, were used. MC38/hPD-L1 cells (5.0×106) dissolved in 100 μL PBS were injected subcutaneously into the humanized PD-1 mice. Upon reaching a tumor volume of approximately ˜100 mm^3, experimental animals were randomly assigned to control and various treatment groups and subsequently initiated with drug administration.
Lenvatinib (Eisai, Japan) was administered orally once daily at a dose of 10 mg/kg. Hydroxyprogesterone Caproate was administered via intraperitoneal injection every two days. Pembrolizumab was administered every three days at a dose of 200 μg per mouse. The duration of drug administration lasted around 20 days.
2) Tumor volume measured twice weekly.

CT26 tumor [2] = experiment: BALB/c mouse CT26 tumor model with anti-PD-L1 antibody 10F.9G2; type: in vivo, BALB/c mice; details: anti-PD-L1 10F.9G2
Protocol: Female BALB/c mice aged 6-8 weeks, weighing approximately 20 grams, were used. CT26 cells (5.0×106) dissolved in 100 μL PBS were subcutaneously injected into the BALB/c mice. When the tumor volume reached ˜100 mm^3, the experimental animals were randomly assigned to control and treatment groups, and drug administration commenced.
Lenvatinib (Eisai, Japan) was administered orally once daily at a dose of 10 mg/kg; Hydroxyprogesterone Caproate was administered via intraperitoneal injection every two days; 10F.9G2 was administered every three days at a dose of 200 μg/mouse. Drug administration continued for approximately 20 days.
2) Tumor volume was measured twice a week, and its size was calculated using the formula: […]

Renca tumor = experiment: BALB/c mouse Renca renal cell carcinoma tumor model, tumor inhibition rate; type: in vivo, BALB/c mice; parameters: Tumor Inhibition Rates (Compared with Control Group): concentration or dose not given beside the values; details: for Tumor Inhibition Rates (Compared with Control Group): Renca model
Protocol: BALB/c female mice, aged 6-8 weeks and weighing around 20 grams, were utilized. Renca cells (3.0×106) dissolved in 100 μL PBS were subcutaneously injected into the BALB/c mice. Upon reaching a tumor volume of about 70 mm^3, experimental animals were randomly distributed into control and treatment groups.
Lenvatinib was administered orally once daily at a dosage of 7.5 mg/kg; hydroxyprogesterone caproate was administered intraperitoneally (abbreviated as i.p. in the table) every two days. Anti-PD-1 antibody (BioXCell, Supplier: Yicon (Beijing) Medical Technology Inc.) was diluted in PBS and administered every four days at a dose of 100 μg per mouse.
Tumor size was measured biweekly using calipers for two-dimensional measurements. The volume was calculated using the formula and expressed in mm^3: V=(X^2Y)/2, where X and Y represent the shorter and longer diameters of the tumor, respectively.

Row | SMILES | Tumor suppression effect (in words) (CT26 tumor [1]; BALB/c mouse CT26 tumor model, HPC 20 mg/kg i.p., Lenvatinib 10 mg/kg p.o., RMP1-14 200 μg/mouse) | Tumor Inhibition Rate (Compared with Control Group) (CT26 tumor [1]; Day 0) [%] | Tumor Inhibition Rate (Compared with Control Group) (CT26 tumor [1]; Day 4) [%] | Tumor Inhibition Rate (Compared with Control Group) (CT26 tumor [1]; Day 7) [%] | Tumor Inhibition Rate (Compared with Control Group) (CT26 tumor [1]; Day 11) [%] | Tumor Inhibition Rate (Compared with Control Group) (CT26 tumor [1]; Day 14) [%] | Tumor Inhibition Rate (Compared with Control Group) (CT26 tumor [1]; Day 18) [%] | Tumor Inhibition Rate (Compared with Control Group) (CT26 tumor [1]; Day 20) [%] | Anti-tumor effect (in words) (MC38/hPD-L1 tumor) | Anti-tumor effect (in words) (CT26 tumor [2]) | Tumor suppression effect (in words) (Renca tumor; BALB/c mouse Renca tumor model) | Tumor Inhibition Rates (Compared with Control Group) (Renca tumor; Day 6) [%] | Tumor Inhibition Rates (Compared with Control Group) (Renca tumor; Day 9) [%] | Tumor Inhibition Rates (Compared with Control Group) (Renca tumor; Day 13) [%] | Tumor Inhibition Rates (Compared with Control Group) (Renca tumor; Day 16) [%] | Tumor Inhibition Rates (Compared with Control Group) (Renca tumor; Day 20) [%]
1 | CCCCCC(=O)O[C@]1(C(C)=O)CC[C@H]2[C@@H]3CCC4=CC(=O)CC[C@]4(C)[C@H]3CC[C@@]21C [HPC, Hydroxyprogesterone caproate] | did not exhibit a favorable tumor suppression effect; also recorded: promoting tumor growth | 0.00 | 3.66 | −14.89 | −13.61 | −31.32 | −47.15 | −37.09 | did not exhibit significant tumor inhibitory effects | did not exhibit significant tumor suppression | exhibits a certain degree of tumor suppression | 0.00 | 40.00 | 48.51 | 43.95 | 56.59
2 | COc1cc2nccc(Oc3ccc(NC(=O)NC4CC4)c(Cl)c3)c2cc1C(N)=O [Lenvatinib] | – | – | – | – | – | – | – | – | – | – | – | 0.00 | 22.92 | 48.51 | 55.37 | 70.68
